Data: US4252807A, “Fused pyrimidine derivatives and antiatherosclerotic methods of treatment with them” (Chincin Gyogyszer es Vegyeszeti Termekek Gyara Rt., priority 1976, dated 1981)

What was measured:
[1] = system: cholesterin-fed rabbit atherosclerosis model; test: cholesterin-fed rabbit atherosclerosis model (Table 1); type: in vivo; design: Serum triglyceride: unit not given here; conditions: for Serum triglyceride / Serum total cholesterin / Aorta total cholesterin / Aorta total lipid / Serum total lipid: rabbit, cholesterin-fed; for Serum triglyceride: Control-1 75, Control-2 103; for Serum total cholesterin: Control-1 326, Control-2 1504; for Aorta total cholesterin: Control-1 331, Control-2 921; for Aorta total lipid: Control-1 1928, Control-2 2575; for serum lipid, aorta lipid and cholesterin lipid level: in words, from the data of Table 1 (rabbit, 50 mg/kg)
[2] = system: normolyphaemic rats; test: normolyphaemic rats, serum lipids (Table 2); type: in vivo, rat; design: Serum triglyceride: unit not given here; conditions: for Serum cholesterine: Control 103; for Serum triglyceride: Control 185.1
[3] = dose 50 mg/kg, Control-1 (normal feed) 658, Control-2 (cholesterin) 2374

Compound | Serum triglyceride ([1]; dose 50 mg/kg) | Serum total cholesterin ([1]; dose 50 mg/kg) | Aorta total cholesterin ([1]; dose 50 mg/kg) | Aorta total lipid ([1]; dose 50 mg/kg) | Serum total lipid [1, 3] | Serum cholesterine ([2]; 50 mg/kg p.o.) | Serum triglyceride ([2]; 50 mg/kg p.o.) | other results
6-methyl-9-chloro-phenyl)-methylene-4-oxo-6,7,8,9-tetrahydro-4H-pyrido(1,2a)pyrimidine-3-carboxylic acid ethylester | 190 | 1531 | 365 | 2461 | 2547 | – | – | –
CCOC(=O)c1cnc2n(c1=O)C(C)CCC2=Cc1cccn1C (centres unmarked) [A, 6-methyl-9-(N-methyl-2-pyrrolyl)-methylene-4-oxo-6,7,8,9-tetrahydro-4H-pyrido(1,2a) pyrimidine-3-carboxylic acid ethylester] | 121 | 1419 | 958 | 2496 | 2309 | – | – | –
CCOC(=O)C=C1CCC(C)n2c1ncc(C(=O)OCC)c2=O (centres unmarked) [C, 6-methyl-9-(ethoxycarbonyl-methylene)-4-oxo-6,7,8,9-tetrahydro-4H-pyrido(1,2a)-purimidine-3-carboxylic acid ethylester] | 119 | 1176 | 353 | 1878 | 1903 | – | – | serum lipid, aorta lipid and cholesterin lipid level [1]: significant decrease
CCOC(=O)C(C)(C)Oc1ccc(Cl)cc1 [Chlofibrate, reference compound] | – | – | – | – | – | – | – | Serum cholesterine ([2]; 250 mg/kg p.o.): 63.9; Serum triglyceride ([2]; 250 mg/kg p.o.): 144.1; Serum triglyceride ([1]; dose 250 mg/kg): 115; Serum total cholesterin ([1]; dose 250 mg/kg): 1137; Aorta total cholesterin ([1]; dose 250 mg/kg): 787; Serum total lipid ([1]; dose 250 mg/kg, Control-1 658, Control-2 2374): 1938; Aorta total lipid ([1]; dose 250 mg/kg): 2227; weight of the liver ([1]; test animals): increase the weight of the liver
CCOC(=O)c1cnc2n(c1=O)C(C)CCC2CC(=O)O (centres unmarked) [D, 6-methyl-3-ethoxycarbonyl-4-oxo-6,7,8,9-tetrahydro-4H-pyrido(1,2a)pyrimidine-9-yl-acetic acid] | 97 | 972 | 186 | 1355 | 1638 | – | – | serum lipid, aorta lipid and cholesterin lipid level [1]: significant decrease
CCOC(=O)C=C1CCCn2c1ncc(C(=O)OCC)c2=O [E, 9-(ethoxycarbonyl-methylene)-4-oxo-6,7,8,9-tetrahydro-4H-pyrido(1,2a)pyrimidine-3-carboxylic acid ethylester] | – | – | – | – | – | 86.5 | 127.9 | –
CCOC(=O)C1=CNC2C(CC(=O)O)CCCN2C1=O (centres unmarked) [F, 9-(carboxyl-methyl)-4-oxo-1,6,7,8,9,9a-hexahydro-4H-pyrido(1,2a)pyrimidine-3-carboxylic acid ethylester] | – | – | – | – | – | 88.0 | 155.5 | –
CCOC(=O)c1cnc2n(c1=O)CCCC2CC(=O)O (centres unmarked) [G, 9-(carboxyl-methyl)-4-oxo-6,7,8,9-tetrahydro-4H-pyrido-(1,2a)pyrimidine-3-carboxylic acid ethylester] | – | – | – | – | – | 88.0 | 127.5 | –
COC(=O)C=C1CCC(C)n2c1ncc(C(=O)OC)c2=O (centres unmarked) [H, 9-(methoxycarbonyl-methylene)-6-methyl-4-oxo-6,7,8,9-tetrahydro-4H-pyrido(1,2a)pyrimidine-3-carboxylic acid methylester] | – | – | – | – | – | 90.2 | 107.9 | –
